Settings in all cases: SIN-1 500 μM 30 min
The target in assay [1] is T1, PKG-1α (Homo sapiens, UniProt Q13976).
T1 construct: transfected with an expression plasmid containing a full length WT-PKG-1α cDNA; made in house; host or cells: HEK-293T (methods); the results paragraph b527 says PASMC
T1 sequence (Q13976 2-671): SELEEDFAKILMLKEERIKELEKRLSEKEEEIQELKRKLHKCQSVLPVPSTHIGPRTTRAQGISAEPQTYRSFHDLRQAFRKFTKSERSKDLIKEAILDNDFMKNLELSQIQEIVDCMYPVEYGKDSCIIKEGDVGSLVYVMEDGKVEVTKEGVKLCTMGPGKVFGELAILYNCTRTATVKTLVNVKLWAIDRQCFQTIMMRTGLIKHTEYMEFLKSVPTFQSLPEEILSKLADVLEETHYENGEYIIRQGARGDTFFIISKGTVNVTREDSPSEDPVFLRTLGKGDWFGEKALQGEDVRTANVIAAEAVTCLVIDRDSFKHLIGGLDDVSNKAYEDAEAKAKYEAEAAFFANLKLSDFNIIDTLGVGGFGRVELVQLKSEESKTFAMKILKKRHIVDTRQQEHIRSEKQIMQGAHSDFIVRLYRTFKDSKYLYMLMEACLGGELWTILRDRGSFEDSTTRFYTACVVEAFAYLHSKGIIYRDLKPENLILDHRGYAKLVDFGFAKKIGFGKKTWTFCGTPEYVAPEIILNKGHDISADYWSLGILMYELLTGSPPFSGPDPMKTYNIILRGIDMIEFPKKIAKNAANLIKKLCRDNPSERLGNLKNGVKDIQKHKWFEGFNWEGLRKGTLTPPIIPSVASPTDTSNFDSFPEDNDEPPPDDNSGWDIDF
Kind of assay: [3H]cGMP binding assay. On the procedure: HEK-293T cells were transiently transfected with either the WT-PKG-1α or the Y247FPKG-1α cDNA using Effectene transfection reagent (Qiagen), according to the manufacturer's instructions. Briefly, the cells were split the day before the transfection to low cell densities (25%) and were transfected 24 h later. After 48 h of transfection, the cells were incubated in DMEM serum free media containing 1% FBS and antibiotics for 4 h and then treated with or without SIN-1 (500 μM), for 30 min. This method produced an approximate 70% transfection efficiency of HEK-293T cells, as measured using green fluorescent protein vectors. […]
The batches of supernatant were pooled, and 2 μg of anti-PKG-1α antibody per mg of protein were added to the extract and rocked at 4° C. […] After 15 min of agitation at 4° C., the beads were pelleted by centrifugation, and the supernatant containing the PKG-1α protein was collected, quantified using Bradford reagent, and stored at −80° C.
To assay the binding of cGMP to WT- and Y247F-PKG-1α the enzymes were saturated with cGMP by incubating 50 μl aliquots of the diluted PKG constructs for 60 min at room temperature with 50 μl of [^3H]cGMP and 150 μl of cGMP-binding assay mixture (25 mM K2HPO4, 25 mM KH2PO4, 1 mM EDTA, pH 6.8, 2M NaCl, 200 μM 3-isobutyl-1-methylxanthine). […] The dissociation constant (Kd) values were determined using GraphPad Prism graphics.

In assay [2] the target is T1, PKG-1α. Kind of assay: [3H]cGMP dissociation/exchange assay. The format is binding. Here is the method:
(§1) WT- and Y247F-PKG-1α were immunopurified, as described above then incubated for 60 min at room temperature with 3 ml of cGMP-binding assay mixture containing 3 μM [^3H]cGMP. This incubation time and dose has been previously experimentally determined to be adequate for the saturation of the cGMP-binding sites in PKG. After incubation, the samples were cooled to 4° C. and divided into 200 μl aliquots per tube. The addition of 100-fold excess unlabeled cGMP at time 0 sec (Bo) initiated the dissociation (exchange) of the bound [^3H]cGMP. The cGMP exchange in each tube was stopped at the appropriate time point by the addition of 2 ml of cold aqueous saturated (NH4)2SO4. The samples were filtered, washed, and the portion of bound [^3H]cGMP at any time point was determined, as described previously.

Assay [3] deals with T2, PKG-1α (Homo sapiens, UniProt Q13976, Y247F).
T2 sequence (Q13976 2-671 Y247F): T1 sequence (Q13976 2-671) with Y246F
Kind of assay: [3H]cGMP dissociation/exchange assay. The class given is binding. On the procedure: as §1

Here are results for one substance from patent publication US9447157B2, “Nitration shielding peptides and methods of use thereof” (Augusta University Research Institute, Inc., priority 2013, dated 2016).

Numbering of substitutions follows the chain as printed.

“3-morpholinosydnonimine N-ethylcarbamide [SIN-1]”: the “Maximal [3H]cGMP binding to WT-PKG-1α” value in assay [1] is on record as “significantly attenuated”. In addition, the “[3H]cGMP exchange/dissociation from WT-PKG-1α” value in assay [2] is “enhanced”. Also, the “[3H]cGMP exchange/dissociation from Y247F mutant” value in assay [3] is “but not from the Y247F mutant”.
